Assay in all cases: biochemical
Parameters in all cases: DiscoverX KINOMEscan scanMAX competition binding panel, single concentration, percent of control; remaining binding: dose or concentration left out as unconfirmed
Common to all, as to conditions: KINOMEscan binding, percent of control; read-out: Table S4_SCANMAX REPORT - related to Fig. 1 / Percent Control

The target of assay [1] is T1, PAK7 (Homo sapiens, UniProt Q9P286).
T1 construct: gene PAK5
An excerpt: (§1) Certain PTH are potent inhibitors of TLK1 ([Ronald et al., 2013]), and by inference TLK2, as these proteins must homo- and hetero-dimerize for full activation ([Mortuza et al., 2018]), in addition to being highly similar in sequence and structure, and thus similarly targetable. […] Two noteworthy observations are that PTHs are structurally different from many known ATP competitive inhibitors, and that J54 was carefully designed based on considerations reported previously for the THD—the Kinomescan has confirmed that J54 is specific to TLKs. We should point out that although PTH were the first reported inhibitors of TLKs ([Ronald et al., 2013]), other inhibitors particularly of TLK2 have since been reported ([Kim et al., 2016]), some based on structure docking ([Mortuza et al., 2018]), although neither their potency and effects in vivo nor their potential off-target effects have not been reported as they were selected from libraries of kinase inhibitors. Supplementary file mmc2.xlsx: Table S4. SCANMAX Table, Related to Figure 1 Kinomescan of J54 inhibitory activity on human kinases.

For assay [2], the target named is T2, p38-beta (Homo sapiens, UniProt Q15759).
T2 construct: gene MAPK11
From the text: as §1

Assay [3] deals with LATS2 (Homo sapiens, UniProt Q9NRM7).
From the text: as §1

Assay [4] deals with EGFR(G719S) (Homo sapiens, UniProt P00533, G719S).
From the text: as §1

In assay [5] the target is CASK (Homo sapiens, UniProt O14936).
From the text: as §1

For assay [6], the target named is T3, ABL1(Q252H)-nonphosphorylated (Homo sapiens, UniProt P00519, Q252H).
T3 construct: nonphosphorylated
From the text: as §1

Assay [7] has as its target GRK1 (Homo sapiens, UniProt Q15835).
From the text: as §1

The target of assay [8] is RIPK1 (Homo sapiens, UniProt Q13546).
From the text: as §1

In assay [9] the target is RET(V804M) (Homo sapiens, UniProt P07949, V804M).
From the text: as §1

Assay [10] has as its target LYN (Homo sapiens, UniProt P07948).
From the text: as §1

Assay [11] has as its target T4, RPS6KA5(Kin.Dom.1-N-terminal) (Homo sapiens, UniProt O75582).
T4 construct: Kin.Dom.1-N-terminal
From the text: as §1

Assay [12] deals with CSNK2A1 (Homo sapiens, UniProt P68400).
From the text: as §1

In assay [13] the target is TEC (Homo sapiens, UniProt P42680).
From the text: as §1

Assay [14] has as its target PIK3C2G (Homo sapiens, UniProt O75747).
From the text: as §1

In assay [15] the target is FGFR3 (Homo sapiens, UniProt P22607).
From the text: as §1

Assay [16] deals with MET(M1250T) (Homo sapiens, UniProt P08581, M1250T).
From the text: as §1

In assay [17] the target is STK39 (Homo sapiens, UniProt Q9UEW8).
From the text: as §1

Assay [18] has as its target PIP5K1A (Homo sapiens, UniProt Q99755).
From the text: as §1

T2 sequence (Q15759 whole entry): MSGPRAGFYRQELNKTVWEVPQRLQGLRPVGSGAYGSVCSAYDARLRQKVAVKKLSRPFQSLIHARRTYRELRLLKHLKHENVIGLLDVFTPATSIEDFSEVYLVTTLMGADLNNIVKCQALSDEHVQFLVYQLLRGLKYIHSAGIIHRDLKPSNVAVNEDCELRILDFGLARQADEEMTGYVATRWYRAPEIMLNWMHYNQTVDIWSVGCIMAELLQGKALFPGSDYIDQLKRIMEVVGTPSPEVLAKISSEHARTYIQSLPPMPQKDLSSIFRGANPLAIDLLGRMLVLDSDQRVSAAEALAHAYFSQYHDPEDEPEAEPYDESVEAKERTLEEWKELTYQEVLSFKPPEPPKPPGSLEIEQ
Chain of PIK3C2G (O75747 whole entry): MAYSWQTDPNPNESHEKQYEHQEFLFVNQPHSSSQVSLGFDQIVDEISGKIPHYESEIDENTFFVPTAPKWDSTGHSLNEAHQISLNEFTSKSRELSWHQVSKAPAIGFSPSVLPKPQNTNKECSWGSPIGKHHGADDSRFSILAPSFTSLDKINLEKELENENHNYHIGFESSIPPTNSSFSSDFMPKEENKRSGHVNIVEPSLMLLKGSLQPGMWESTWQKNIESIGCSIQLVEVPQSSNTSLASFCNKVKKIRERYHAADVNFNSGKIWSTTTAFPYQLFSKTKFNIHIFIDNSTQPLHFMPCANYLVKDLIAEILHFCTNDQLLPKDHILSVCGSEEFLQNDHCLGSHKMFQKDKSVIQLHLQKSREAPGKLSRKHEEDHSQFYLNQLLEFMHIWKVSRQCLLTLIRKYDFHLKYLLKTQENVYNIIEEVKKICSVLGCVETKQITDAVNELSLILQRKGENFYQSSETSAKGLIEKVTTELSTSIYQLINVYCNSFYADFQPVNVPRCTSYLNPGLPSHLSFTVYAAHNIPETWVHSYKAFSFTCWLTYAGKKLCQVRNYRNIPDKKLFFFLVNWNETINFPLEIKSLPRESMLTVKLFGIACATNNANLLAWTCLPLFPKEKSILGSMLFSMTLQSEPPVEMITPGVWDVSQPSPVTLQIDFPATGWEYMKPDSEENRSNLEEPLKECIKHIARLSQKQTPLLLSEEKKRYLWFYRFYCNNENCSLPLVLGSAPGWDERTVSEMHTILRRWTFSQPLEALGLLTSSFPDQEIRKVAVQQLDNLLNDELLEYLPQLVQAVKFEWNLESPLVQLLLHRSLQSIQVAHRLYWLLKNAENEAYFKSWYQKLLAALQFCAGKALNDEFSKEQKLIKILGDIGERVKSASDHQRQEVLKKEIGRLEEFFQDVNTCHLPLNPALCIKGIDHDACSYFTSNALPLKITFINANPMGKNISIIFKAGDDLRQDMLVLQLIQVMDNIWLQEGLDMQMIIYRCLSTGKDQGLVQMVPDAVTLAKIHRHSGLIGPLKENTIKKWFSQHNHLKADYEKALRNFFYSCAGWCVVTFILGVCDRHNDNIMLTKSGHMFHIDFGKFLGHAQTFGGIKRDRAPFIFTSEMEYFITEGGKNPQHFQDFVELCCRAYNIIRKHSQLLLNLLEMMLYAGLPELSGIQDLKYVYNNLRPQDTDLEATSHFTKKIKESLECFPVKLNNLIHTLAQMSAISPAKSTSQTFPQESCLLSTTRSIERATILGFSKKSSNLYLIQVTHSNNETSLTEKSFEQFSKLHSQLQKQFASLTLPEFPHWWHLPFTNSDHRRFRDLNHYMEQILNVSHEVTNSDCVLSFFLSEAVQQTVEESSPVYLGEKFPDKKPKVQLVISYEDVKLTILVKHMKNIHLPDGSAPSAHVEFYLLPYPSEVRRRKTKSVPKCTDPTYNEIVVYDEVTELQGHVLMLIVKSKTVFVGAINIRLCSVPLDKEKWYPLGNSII
Chain of CASK (O14936 whole entry): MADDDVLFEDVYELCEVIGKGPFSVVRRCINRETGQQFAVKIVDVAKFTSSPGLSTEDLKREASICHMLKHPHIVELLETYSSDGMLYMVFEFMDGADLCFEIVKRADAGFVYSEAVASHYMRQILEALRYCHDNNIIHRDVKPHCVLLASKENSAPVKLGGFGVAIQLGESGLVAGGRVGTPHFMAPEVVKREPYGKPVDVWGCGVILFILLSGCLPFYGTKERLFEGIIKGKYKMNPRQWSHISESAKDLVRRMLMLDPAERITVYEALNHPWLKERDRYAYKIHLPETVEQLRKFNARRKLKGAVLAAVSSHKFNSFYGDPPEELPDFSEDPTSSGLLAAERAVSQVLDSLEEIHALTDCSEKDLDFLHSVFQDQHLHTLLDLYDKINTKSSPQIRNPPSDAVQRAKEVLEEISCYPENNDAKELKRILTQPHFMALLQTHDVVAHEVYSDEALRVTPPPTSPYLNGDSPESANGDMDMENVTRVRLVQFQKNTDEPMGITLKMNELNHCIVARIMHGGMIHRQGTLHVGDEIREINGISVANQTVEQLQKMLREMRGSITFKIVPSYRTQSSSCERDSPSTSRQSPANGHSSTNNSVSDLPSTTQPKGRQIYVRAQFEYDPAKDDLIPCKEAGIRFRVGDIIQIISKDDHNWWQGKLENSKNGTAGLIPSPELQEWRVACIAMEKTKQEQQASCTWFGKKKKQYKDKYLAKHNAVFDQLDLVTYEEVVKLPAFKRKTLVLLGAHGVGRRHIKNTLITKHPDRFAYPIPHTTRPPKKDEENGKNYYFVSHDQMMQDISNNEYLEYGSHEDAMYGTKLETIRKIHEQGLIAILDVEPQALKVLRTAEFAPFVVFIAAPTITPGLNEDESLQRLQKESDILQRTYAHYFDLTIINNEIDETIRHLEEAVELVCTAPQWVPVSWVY
Chain of EGFR(G719S) (P00533 whole entry G719S): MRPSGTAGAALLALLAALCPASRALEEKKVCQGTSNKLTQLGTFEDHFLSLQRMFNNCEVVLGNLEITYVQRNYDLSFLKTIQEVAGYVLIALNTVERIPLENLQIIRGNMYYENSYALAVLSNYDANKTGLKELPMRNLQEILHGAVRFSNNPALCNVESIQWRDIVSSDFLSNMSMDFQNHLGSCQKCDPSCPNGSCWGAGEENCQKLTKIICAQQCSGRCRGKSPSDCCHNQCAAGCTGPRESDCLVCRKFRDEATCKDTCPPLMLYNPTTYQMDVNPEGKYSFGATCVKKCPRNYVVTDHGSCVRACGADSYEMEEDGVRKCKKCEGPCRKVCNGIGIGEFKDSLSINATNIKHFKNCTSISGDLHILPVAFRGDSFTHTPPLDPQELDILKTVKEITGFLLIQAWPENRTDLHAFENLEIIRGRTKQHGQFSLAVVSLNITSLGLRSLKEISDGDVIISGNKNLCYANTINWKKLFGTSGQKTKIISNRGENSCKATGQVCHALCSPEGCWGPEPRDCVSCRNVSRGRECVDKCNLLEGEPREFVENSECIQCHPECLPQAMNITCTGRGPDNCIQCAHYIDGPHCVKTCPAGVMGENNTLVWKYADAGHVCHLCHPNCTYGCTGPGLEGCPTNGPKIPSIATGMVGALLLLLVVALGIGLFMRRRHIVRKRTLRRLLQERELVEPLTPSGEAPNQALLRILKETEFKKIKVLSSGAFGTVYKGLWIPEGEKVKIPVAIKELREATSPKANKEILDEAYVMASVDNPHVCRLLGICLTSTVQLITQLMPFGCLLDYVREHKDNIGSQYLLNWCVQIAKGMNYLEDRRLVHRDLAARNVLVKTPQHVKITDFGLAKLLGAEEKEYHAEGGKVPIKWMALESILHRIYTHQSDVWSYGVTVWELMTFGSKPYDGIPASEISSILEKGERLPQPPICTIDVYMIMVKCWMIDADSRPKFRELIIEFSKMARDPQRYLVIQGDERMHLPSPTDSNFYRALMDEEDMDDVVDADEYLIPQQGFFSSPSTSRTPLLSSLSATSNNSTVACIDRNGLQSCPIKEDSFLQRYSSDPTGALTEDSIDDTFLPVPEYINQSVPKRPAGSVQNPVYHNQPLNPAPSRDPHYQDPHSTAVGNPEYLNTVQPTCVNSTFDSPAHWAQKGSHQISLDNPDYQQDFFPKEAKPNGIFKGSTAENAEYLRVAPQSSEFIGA
Chain of TEC (P42680 whole entry): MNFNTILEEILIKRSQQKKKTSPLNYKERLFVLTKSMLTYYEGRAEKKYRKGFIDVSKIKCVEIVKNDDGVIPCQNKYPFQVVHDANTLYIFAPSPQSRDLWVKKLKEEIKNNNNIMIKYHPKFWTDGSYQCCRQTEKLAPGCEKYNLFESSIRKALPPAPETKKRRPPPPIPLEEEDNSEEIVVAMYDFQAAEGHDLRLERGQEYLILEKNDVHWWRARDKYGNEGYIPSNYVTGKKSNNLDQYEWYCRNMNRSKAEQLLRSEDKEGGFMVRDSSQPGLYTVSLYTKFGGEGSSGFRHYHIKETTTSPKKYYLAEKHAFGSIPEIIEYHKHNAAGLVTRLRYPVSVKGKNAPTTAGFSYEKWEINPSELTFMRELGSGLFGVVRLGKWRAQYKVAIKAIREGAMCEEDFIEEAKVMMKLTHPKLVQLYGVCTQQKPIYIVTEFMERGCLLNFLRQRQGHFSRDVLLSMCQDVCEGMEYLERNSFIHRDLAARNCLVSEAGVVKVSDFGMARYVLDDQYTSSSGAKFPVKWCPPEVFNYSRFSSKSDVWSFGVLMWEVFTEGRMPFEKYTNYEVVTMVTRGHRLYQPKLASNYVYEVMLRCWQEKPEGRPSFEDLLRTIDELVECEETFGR
Chain of CSNK2A1 (P68400 whole entry): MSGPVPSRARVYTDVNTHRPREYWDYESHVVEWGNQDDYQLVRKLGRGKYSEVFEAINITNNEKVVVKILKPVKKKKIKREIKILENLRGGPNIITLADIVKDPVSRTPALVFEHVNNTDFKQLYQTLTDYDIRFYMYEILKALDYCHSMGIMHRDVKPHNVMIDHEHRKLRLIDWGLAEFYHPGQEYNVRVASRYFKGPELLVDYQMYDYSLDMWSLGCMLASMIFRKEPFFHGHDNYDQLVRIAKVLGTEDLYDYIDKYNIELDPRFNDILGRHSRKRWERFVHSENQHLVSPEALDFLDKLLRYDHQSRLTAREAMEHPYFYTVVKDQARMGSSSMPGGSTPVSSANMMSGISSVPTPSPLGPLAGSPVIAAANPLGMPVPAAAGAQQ

Turning to `c1ccc2c(c1)Sc1ccccc1N2CCN1CCOCC1` [J54], the remaining binding was 100% in assay [1]; 100% in assay [2]; 90% in assay [3]; 99% in assay [4]; 100% in assay [5]; 78% in assay [6]. The remaining binding came out at 100% in [7]; 84% in assay [8]; 100% in [9]; 98% in assay [10]; 100% in assay [11]; 79% in [12]. The remaining binding in [13] stood at 100%; in [14] it was 74%; in assay [15], 97%; in assay [16] it was 67%; in assay [17] it was 100%; in [18] it was 46%.

These data come from PMC7486443, “Generation of Phenothiazine with Potent Anti-TLK1 Activity for Prostate Cancer Therapy” (iScience, 2020).
